Columns and labels:
Rattus norvegicus [1] = organism: Rattus norvegicus; assay: Biodistribution in heart of mature female Dawley rat after 1h, expressed as percent injected dose/g; type: ADME, organism-based; conditions: in vivo
Rattus norvegicus [2] = organism: Rattus norvegicus; assay: Biodistribution in heart of mature female Dawley rat after 3 h, expressed as percent injected dose/g; type: ADME, organism-based; conditions: in vivo
Rattus norvegicus [3] = organism: Rattus norvegicus; assay: Biodistribution in heart of mature female Dawley rat after 30min, expressed as percent injected dose/g; type: ADME, organism-based; conditions: in vivo, 0.5 h
Rattus norvegicus [4] = organism: Rattus norvegicus; assay: Biodistribution in kidney of mature female Dawley rat after 10min, expressed as percent injected dose/g; type: ADME, organism-based; conditions: in vivo
Rattus norvegicus [5] = organism: Rattus norvegicus; assay: Biodistribution in kidney of mature female Dawley rat after 3 h, expressed as percent injected dose/g; type: ADME, organism-based; conditions: in vivo
Rattus norvegicus [6] = organism: Rattus norvegicus; assay: Biodistribution in kidney of mature female Dawley rat after 30min, expressed as percent injected dose/g; type: ADME, organism-based; conditions: in vivo, 0.5 h
Rattus norvegicus [7] = organism: Rattus norvegicus; assay: Biodistribution in liver of mature female Dawley rat after 10min, expressed as percent injected dose/g; type: ADME, organism-based; conditions: in vivo
Rattus norvegicus [8] = organism: Rattus norvegicus; assay: Biodistribution in lung of mature female Dawley rat after 10min, expressed as percent injected dose/g; type: ADME, organism-based; conditions: in vivo
Rattus norvegicus [9] = organism: Rattus norvegicus; assay: Biodistribution in muscle of mature female Dawley rat after 10min, expressed as percent injected dose/g; type: ADME, organism-based, Muscle tissue; conditions: in vivo
Rattus norvegicus [10] = organism: Rattus norvegicus; assay: Biodistribution in muscle of mature female Dawley rat after 1h, expressed as percent injected dose/g; type: ADME, organism-based, Muscle tissue; conditions: in vivo
Rattus norvegicus [11] = organism: Rattus norvegicus; assay: Biodistribution in muscle of mature female Dawley rat after 3 h, expressed as percent injected dose/g; type: ADME, organism-based, Muscle tissue; conditions: in vivo
Rattus norvegicus [12] = organism: Rattus norvegicus; assay: Biodistribution in muscle of mature female Dawley rat after 30min, expressed as percent injected dose/g; type: ADME, organism-based, Muscle tissue; conditions: in vivo, 0.5 h
Rattus norvegicus [13] = organism: Rattus norvegicus; assay: Biodistribution inl ilver of mature female Dawley rat after 30min, expressed as percent injected dose/g; type: ADME, organism-based; conditions: in vivo, 0.5 h
Rattus norvegicus [14] = organism: Rattus norvegicus; assay: Biodistribution inl iver of mature female Dawley rat after 3 h, expressed as percent injected dose/g; type: ADME, organism-based, Liver; conditions: in vivo
Rattus norvegicus [15] = organism: Rattus norvegicus; assay: Biodistribution in abdominal Dawley rat after 30min, expressed as percent injected dose/g; type: ADME, organism-based; conditions: in vivo, 0.5 h
Rattus norvegicus [16] = organism: Rattus norvegicus; assay: Biodistribution in abdominal of mature female Dawley rat after 10min, expressed as percent injected dose/g; type: ADME, organism-based, Abdominal cavity; conditions: in vivo
Rattus norvegicus [17] = organism: Rattus norvegicus; assay: Biodistribution in abdominal of mature female Dawley rat after 1h, expressed as percent injected dose/g; type: ADME, organism-based, Abdominal cavity; conditions: in vivo
Rattus norvegicus [18] = organism: Rattus norvegicus; assay: Biodistribution in abdominal of mature female Dawley rat after 3 h, expressed as percent injected dose/g; type: ADME, organism-based, Abdominal cavity; conditions: in vivo
Rattus norvegicus [19] = organism: Rattus norvegicus; assay: Biodistribution in blood of mature female Dawley rat after 10min, expressed as percent injected dose/g; type: ADME, organism-based; conditions: in vivo
Rattus norvegicus [20] = organism: Rattus norvegicus; assay: Biodistribution in blood of mature female Dawley rat after 1h, expressed as percent injected dose/g; type: ADME, organism-based; conditions: in vivo
Rattus norvegicus [21] = organism: Rattus norvegicus; assay: Biodistribution in blood of mature female Dawley rat after 3 h, expressed as percent injected dose/g; type: ADME, organism-based; conditions: in vivo
Rattus norvegicus [22] = organism: Rattus norvegicus; assay: Biodistribution in blood of mature female Dawley rat after 30min, expressed as percent injected dose/g; type: ADME, organism-based; conditions: in vivo, 0.5 h
Rattus norvegicus [23] = organism: Rattus norvegicus; assay: Biodistribution in bone of mature female Dawley rat after 10min, expressed as percent injected dose/g; type: ADME, organism-based, Bone element; conditions: in vivo
Rattus norvegicus [24] = organism: Rattus norvegicus; assay: Biodistribution in brain of mature female Dawley rat after 30min, expressed as percent injected dose/g; type: ADME, organism-based; conditions: in vivo, 0.5 h
Rattus norvegicus [25] = organism: Rattus norvegicus; assay: Biodistribution in fat of mature female Dawley rat after 10min, expressed as percent injected dose/g; type: ADME, organism-based, Adipose tissue; conditions: in vivo
Rattus norvegicus [26] = organism: Rattus norvegicus; assay: Biodistribution in fat of mature female Dawley rat after 1h, expressed as percent injected dose/g; type: ADME, organism-based, Adipose tissue; conditions: in vivo
Rattus norvegicus [27] = organism: Rattus norvegicus; assay: Biodistribution in fat of mature female Dawley rat after 3 h, expressed as percent injected dose/g; type: ADME, organism-based, Adipose tissue; conditions: in vivo
Rattus norvegicus [28] = organism: Rattus norvegicus; assay: Biodistribution in fat of mature female Dawley rat after 30min, expressed as percent injected dose/g; type: ADME, organism-based, Adipose tissue; conditions: in vivo, 0.5 h
Rattus norvegicus [29] = organism: Rattus norvegicus; assay: Biodistribution in heart of mature female Dawley rat after 10min, expressed as percent injected dose/g; type: ADME, organism-based; conditions: in vivo
Rattus norvegicus [30] = organism: Rattus norvegicus; assay: Biodistribution in bone of mature female Dawley rat after 3 h, expressed as percent injected dose/g; type: ADME, organism-based, Bone element; conditions: in vivo
Rattus norvegicus [31] = organism: Rattus norvegicus; assay: Biodistribution in bone of mature female Dawley rat after 30min, expressed as percent injected dose/g; type: ADME, organism-based, Bone element; conditions: in vivo, 0.5 h
Rattus norvegicus [32] = organism: Rattus norvegicus; assay: Biodistribution in brain of mature female Dawley rat after 10min, expressed as percent injected dose/g; type: ADME, organism-based; conditions: in vivo
Rattus norvegicus [33] = organism: Rattus norvegicus; assay: Biodistribution in brain of mature female Dawley rat after 1h, expressed as percent injected dose/g; type: ADME, organism-based; conditions: in vivo
Rattus norvegicus [34] = organism: Rattus norvegicus; assay: Biodistribution in brain of mature female Dawley rat after 3 h, expressed as percent injected dose/g; type: ADME, organism-based; conditions: in vivo
Rattus norvegicus [35] = organism: Rattus norvegicus; assay: Biodistribution in bone of mature female Dawley rat after 1h, expressed as percent injected dose/g; type: ADME, organism-based, Bone element; conditions: in vivo
Rattus norvegicus [36] = organism: Rattus norvegicus; assay: Biodistribution in lung of mature female Dawley rat after 1h, expressed as percent injected dose/g; type: ADME, organism-based; conditions: in vivo
Rattus norvegicus [37] = organism: Rattus norvegicus; assay: Biodistribution in lung of mature female Dawley rat after 3 h, expressed as percent injected dose/g; type: ADME, organism-based; conditions: in vivo
Rattus norvegicus [38] = organism: Rattus norvegicus; assay: Biodistribution in lung of mature female Dawley rat after 30min, expressed as percent injected dose/g; type: ADME, organism-based; conditions: in vivo, 0.5 h
Rattus norvegicus [39] = organism: Rattus norvegicus; assay: Biodistribution in kidney of mature female Dawley rat after 1h, expressed as percent injected dose/g; type: ADME, organism-based; conditions: in vivo
Rattus norvegicus [40] = organism: Rattus norvegicus; assay: Biodistribution inl liver of mature female Dawley rat after 1h, expressed as percent injected dose/g; type: ADME, organism-based; conditions: in vivo

N=C(N)SCC[18F]
Biodistribution (Rattus norvegicus [1]): 0.29%
Biodistribution (Rattus norvegicus [2]): 0.16%
Biodistribution (Rattus norvegicus [3]): 0.37%
Biodistribution (Rattus norvegicus [4]): 1.82%
Biodistribution (Rattus norvegicus [5]): 0.21%
Biodistribution (Rattus norvegicus [6]): 1.06%
Biodistribution (Rattus norvegicus [7]): 0.95%
Biodistribution (Rattus norvegicus [8]): 1.02%
Biodistribution (Rattus norvegicus [9]): 0.33%
Biodistribution (Rattus norvegicus [10]): 0.32%
Biodistribution (Rattus norvegicus [11]): 0.14%
Biodistribution (Rattus norvegicus [12]): 0.38%
Biodistribution (Rattus norvegicus [13]): 0.51%
Biodistribution (Rattus norvegicus [14]): 0.16%
Biodistribution (Rattus norvegicus [15]): 0.31%
Biodistribution (Rattus norvegicus [16]): 0.38%
Biodistribution (Rattus norvegicus [17]): 0.26%
Biodistribution (Rattus norvegicus [18]): 0.16%
Biodistribution (Rattus norvegicus [19]): 0.32%
Biodistribution (Rattus norvegicus [20]): 0.32%
Biodistribution (Rattus norvegicus [21]): 0.19%
Biodistribution (Rattus norvegicus [22]): 0.27%
Biodistribution (Rattus norvegicus [23]): 0.55%
Biodistribution (Rattus norvegicus [24]): 0.15%
Biodistribution (Rattus norvegicus [25]): 0.08%
Biodistribution (Rattus norvegicus [26]): 0.07%
Biodistribution (Rattus norvegicus [27]): 0.04%
Biodistribution (Rattus norvegicus [28]): 0.07%
Biodistribution (Rattus norvegicus [29]): 0.62%
Biodistribution (Rattus norvegicus [30]): 1.19%
Biodistribution (Rattus norvegicus [31]): 0.82%
Biodistribution (Rattus norvegicus [32]): 0.14%
Biodistribution (Rattus norvegicus [33]): 0.17%
Biodistribution (Rattus norvegicus [34]): 0.16%
Biodistribution (Rattus norvegicus [35]): 0.88%
Biodistribution (Rattus norvegicus [36]): 0.38%
Biodistribution (Rattus norvegicus [37]): 0.17%
Biodistribution (Rattus norvegicus [38]): 0.57%
Biodistribution (Rattus norvegicus [39]): 0.64%
Biodistribution (Rattus norvegicus [40]): 0.35%

Source: ChEMBL document CHEMBL1129456, “Synthesis and evaluation of two positron-labeled nitric oxide synthase inhibitors, S-[11C]methylisothiourea and S-(2-[18F]fluoroethyl)isothiourea, as potential positron emission tomography tracers” (J Med Chem, 1996)
